In PubChem BioAssay (NCI):
Several values for one entry are separate records, joined by “and”; a condition that tells them apart may be missing. Equal entries are not always repeated.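 Interpolation was linear, between the two tested concentrations surrounding the appropriate level; five concentrations were tested over 48 hours in 96-well plates. GI50: concentration for 50% inhibition of growth. TGI denotes the concentration required for complete inhibition of growth.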 Where a SMILES comes first, the peptide text is derived from it. The star is where a group is joined. Cbz = O=C(OCc1ccccc1)*

Assays:
Assay in all cases: inhibition of tumour cell growth, NCI panel, 48 h
[1] = test system: OVCAR-4 ovarian
[2] = test system: OVCAR-8 ovarian
[3] = test system: SNB-19 CNS
[4] = test system: ACHN renal
[5] = test system: UACC-62 melanoma
[6] = test system: RPMI-8226 leukemia
[7] = test system: NCI-H522 lung
[8] = test system: OVCAR-3 ovarian
[9] = test system: A498 renal
[10] = test system: HCT-116 colon
[11] = test system: SN12C renal
[12] = test system: CAKI-1 renal

SMILES	TGI [1]	TGI [2]	TGI [3]	TGI [4]	TGI [5]	TGI [6]	TGI [7]	TGI [8]	TGI [9]	TGI [10]	TGI [11]	TGI [12]	GI50 [2]	GI50 [5]	GI50 [9]	GI50 [12]	GI50 [11]	GI50 [6]	GI50 [7]	GI50 [8]
CCOC(=O)c1nc2ccccc2nc1Oc1ccc(OC)cc1	> 100 µM	> 100 µM	> 100 µM	> 100 µM	> 100 µM	> 100 µM	> 100 µM	> 100 µM	> 100 µM	> 100 µM	> 100 µM	–	–	–	–	–	–	–	–	–
CN(C)CCNC(=O)c1cc(-c2nccn2C)nc2ccccc12	–	> 100 µM	> 100 µM	> 100 µM	> 100 µM	> 100 µM	> 100 µM	–	> 100 µM	> 100 µM	> 100 µM	> 100 µM	–	–	–	–	–	–	–	–
COc1cc(C2c3cc4c(cc3[C@@H](NCCCN(C)C)[C@H]3COC(=O)C23)OCO4)cc(OC)c1O (some centres not stated)	–	1.2 µM and 5.09 µM	1.45 µM and 1.91 µM	0.369 µM and 0.496 µM	0.643 µM and 0.924 µM	> 37.5 µM and 5.49 µM	1.65 µM and 2.47 µM	1.79 µM and 3.76 µM	0.327 µM and 0.696 µM	6.14 µM	0.502 µM and 1.14 µM	0.351 µM and 0.952 µM	0.333 µM and 1.26 µM	0.112 µM and 0.288 µM	0.0838 µM and 0.19 µM	0.0599 µM and 0.227 µM	0.117 µM and 0.333 µM	–	–	–
CO/N=C(/C(=O)OC)c1ccccc1COc1cccc(C(F)(F)F)c1	> 100 µM	–	> 100 µM	> 100 µM	> 100 µM	25.4 µM	70.2 µM	93.7 µM	> 100 µM	> 100 µM	> 100 µM	56.1 µM	–	–	–	–	–	–	–	–
C=CCCCCCC(O)C(O)C/C=C\C/C=C\CC (configuration not stated)	> 18.8 µM	> 18.8 µM	> 18.8 µM	> 18.8 µM	> 18.8 µM	> 18.8 µM	> 18.8 µM	> 18.8 µM	–	> 18.8 µM	> 18.8 µM	> 18.8 µM	–	–	–	–	–	–	–	–
CCN(CC)CCC(=O)c1ccc(Oc2ccccc2)cc1	76.9 µM	> 100 µM	38.2 µM	29.3 µM	29.3 µM	39.2 µM	–	45.3 µM	–	36.1 µM	31.4 µM	30.7 µM	–	–	–	–	–	–	–	–
CC1=NN(C(=O)c2ccccc2O)C(c2ccccc2Cl)C1C(=O)Nc1ccccc1 (configuration not stated)	> 100 µM	> 100 µM	> 100 µM	> 100 µM	> 51.2 µM	> 90.8 µM	0.692 µM	> 51.3 µM	–	–	> 44.8 µM	> 100 µM	–	–	–	–	–	–	–	–
C/C(=N\NC(=S)NNC(=S)N(C)c1ccccc1)c1ccccn1	> 100 µM	> 100 µM	> 100 µM	> 53.6 µM	–	> 30.4 µM	–	> 100 µM	–	> 100 µM	12.8 µM	8.39 µM	–	–	–	–	–	–	–	–
Cc1cc(C)c(NS(=O)c2cccc(Cl)c2)c(C)c1 (configuration not stated)	–	> 100 µM	> 100 µM	> 100 µM	–	> 100 µM	–	> 100 µM	> 100 µM	> 100 µM	> 100 µM	–	–	–	–	–	–	–	–	–
Nc1ccccc1OCc1cc(=O)c(OCc2ccccc2)co1	> 100 µM	> 100 µM	> 100 µM	> 100 µM	4.49 µM	> 100 µM	–	> 100 µM	–	> 100 µM	0.823 µM	> 100 µM	–	–	–	–	–	–	–	–
Cc1c(F)c(N)c2c(=O)cc(-c3ccc(NC(=O)[C@@H](N)CCCCN)c(F)c3)oc2c1F	32.7 µM and 26.7 µM	33 µM and 24.6 µM	> 78.7 µM and 49.5 µM	31.1 µM and 25.6 µM	–	32.6 µM and 22.3 µM	45.5 µM and 35.3 µM	20.7 µM and 14.8 µM	0.22 µM	21.5 µM and 22.1 µM	31.7 µM and 32.7 µM	9.01 µM and 29.7 µM	–	–	–	–	–	3.48 µM and 0.936 µM	19.7 µM and 4.68 µM	0.508 µM and 0.249 µM
COc1ccc2c(c1)CCCN1Cc3ccccc3CC21 (configuration not stated)	> 100 µM	> 100 µM	> 100 µM	> 100 µM	> 100 µM	–	> 100 µM	> 100 µM	96.8 µM	> 100 µM	> 100 µM	> 100 µM	–	–	–	–	–	–	–	–
O=[N+]([O-])/C=C/COCc1cc2c(cc1Br)OCO2	36.7 µM	> 100 µM	–	30 µM	30.1 µM	> 100 µM	50.7 µM	30.3 µM	86.4 µM	34.1 µM	35.7 µM	35.6 µM	–	–	–	–	–	–	–	–
O=C(NCC(C(=O)OCc1ccccc1)C(=O)OCc1ccccc1)OCc1ccccc1	–	> 100 µM	> 100 µM	> 100 µM	> 100 µM	> 100 µM	> 100 µM	> 100 µM	–	–	> 100 µM	> 100 µM	–	–	–	–	–	–	–	–
CC(C)(C)c1cc(C(=O)/C=C/c2ccc3c(c2)CCO3)cc(C(C)(C)C)c1O	–	> 100 µM	> 82.3 µM	> 100 µM	29.6 µM	4.45 µM	2.16 µM	> 100 µM	24.4 µM	> 33.7 µM	> 33.9 µM	22.1 µM	–	–	–	–	–	–	–	–
CCOC(=O)C(CC(=O)OC)NC(=O)C(CC(=O)OC)NC(=O)C(CC(=O)OC)NC(=O)C(CC(=O)OC)NC(=O)OCc1ccccc1 (configuration not stated) (Cbz-D(OMe)D(OMe)D(OMe)D(OMe)-OEt; configuration not given here)	–	> 100 µM	> 100 µM	> 100 µM	> 100 µM	> 100 µM	–	–	> 100 µM	> 100 µM	> 100 µM	–	–	–	–	–	–	–	–	–
CC(=O)OCC1OC(n2c(C)c(C(C)=O)c(-c3cccc4ccccc34)c(C#N)c2=S)C(OC(C)=O)C(OC(C)=O)C1OC(C)=O (configuration not stated)	> 100 µM	> 100 µM	> 100 µM	> 100 µM	> 100 µM	–	> 100 µM	> 100 µM	> 100 µM	> 100 µM	> 100 µM	> 100 µM	–	–	–	–	–	–	–	–
N#CC(NNC(=O)c1ccccc1O)c1ccccc1 (configuration not stated)	> 100 µM	> 100 µM	–	> 100 µM	1.93 µM	> 100 µM	52.2 µM	85.9 µM	–	> 100 µM	> 100 µM	> 100 µM	–	–	–	–	–	–	–	–
CN(C)c1ccc(N=Nc2cccc3ncccc23)cc1	> 100 µM	> 100 µM	> 100 µM	> 100 µM	> 100 µM	> 68.1 µM	> 73.8 µM	> 100 µM	–	> 100 µM	> 100 µM	> 100 µM	–	–	–	–	–	–	–	–
O=C(CC(C(=O)c1cccs1)c1ccsc1)c1ccco1 (configuration not stated)	–	> 100 µM	–	99.2 µM	62.1 µM	> 100 µM	54.1 µM	> 100 µM	64 µM	56.5 µM	> 100 µM	77.3 µM	–	–	–	–	–	–	–	–
